# Source: patent US12018021B2 (UCB Biopharma SRL, priority 2018, dated 2024)
# Target: IgE-Tb / sFcεRIα-Y131A-AF488 (Homo sapiens, UniProt P01854, N146Q/N252Q)
# Experiment: IgE-Tb / sFcεRIα-Y131A-AF488 FRET assay (protocol for examples 234 to 501)
# Format: binding
# Details: examples 234 to 501: compound with IgE-Tb 30 minutes before sFcεRIα-Y131A-AF488, incubated 18 hours at room temperature; read-out: Y131A FRET IC50 range
# Outline: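 Compounds (10-point 3-fold series, top usually 10 μM, 2% DMSO) preincubated 30 min with 5 nM IgE-Tb, then 25 nM sFcεRIα-Y131A-AF488 added; 18 h at room temperature in the dark. TR-FRET ratio 520/490 nm after 337 nm excitation, background-subtracted; IC50 by four-parameter logistic fit.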
# Chain of IgE-Tb / sFcεRIα-Y131A-AF488 (P01854 whole entry N146Q/N252Q): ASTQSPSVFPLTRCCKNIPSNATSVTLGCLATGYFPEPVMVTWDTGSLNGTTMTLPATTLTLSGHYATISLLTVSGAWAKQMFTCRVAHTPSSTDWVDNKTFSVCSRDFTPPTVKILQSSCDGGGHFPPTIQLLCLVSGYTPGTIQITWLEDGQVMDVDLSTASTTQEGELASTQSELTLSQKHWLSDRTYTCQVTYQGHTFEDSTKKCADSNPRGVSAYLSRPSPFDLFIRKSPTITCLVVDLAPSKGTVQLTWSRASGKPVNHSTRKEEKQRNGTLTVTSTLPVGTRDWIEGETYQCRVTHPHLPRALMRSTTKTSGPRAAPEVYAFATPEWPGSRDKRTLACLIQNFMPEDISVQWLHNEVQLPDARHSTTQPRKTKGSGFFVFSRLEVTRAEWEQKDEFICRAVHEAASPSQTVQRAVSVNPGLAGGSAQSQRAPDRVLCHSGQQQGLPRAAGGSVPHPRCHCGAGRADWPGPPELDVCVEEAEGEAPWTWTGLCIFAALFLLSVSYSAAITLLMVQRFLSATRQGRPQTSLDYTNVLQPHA
row,SMILES,IC50
1,"C[C@H]1C[C@@H]1C(=O)Nc1sc2c(c1C(=O)NC[C@H]1C[C@@H]1F)C[C@@H](n1cnnc1Nc1cc(C(F)F)nn1C)CC2 [Example 436, (5S)-5-[3-[[5-(difluoromethyl)-2-methylpyrazol-3-yl]amino]-1,2,4-triazol-4-yl]-N-[[(1R,2S)-2-fluorocyclopropyl]methyl]-2-[[(1S,2S)-2-methylcyclopropanecarbonyl]amino]-4,5,6,7-tetrahydro-1-benzothiophene-3-carboxamide]",< 1000 nM
2,"C[C@H]1C[C@@H]1C(=O)Nc1sc2c(c1C(=O)NC[C@H]1C[C@H](F)C1)C[C@@H](n1cnnc1Nc1cc(C(F)F)nn1C)CC2 [Example 437, (5S)-5-[3-[[5-(difluoromethyl)-2-methylpyrazol-3-yl]amino]-1,2,4-triazol-4-yl]-N-[trans-(3-fluorocyclobutyl)methyl]-2-[[(1S,2S)-2-methylcyclopropanecarbonyl]amino]-4,5,6,7-tetrahydro-1-benzothiophene-3-carboxamide]",< 1000 nM
3,"C[C@H]1C[C@@H]1C(=O)Nc1sc2c(c1C(=O)N[C@H]1C[C@H](F)C1)C[C@@H](n1cnnc1Nc1cc(C(F)F)nn1C)CC2 [Example 438, (5S)-5-[3-[[5-(difluoromethyl)-2-methylpyrazol-3-yl]amino]-1,2,4-triazol-4-yl]-N-(trans-3-fluorocyclobutyl)-2-[[(1S,2S)-2-methylcyclopropanecarbonyl]amino]-4,5,6,7-tetrahydro-1-benzothiophene-3-carboxamide]",< 1000 nM
4,"C[C@H]1C[C@@H]1C(=O)Nc1sc2c(c1C(=O)NC1CC(F)(F)C1)C[C@@H](n1cnnc1Nc1cc(C(F)F)nn1C)CC2 [Example 439, (5S)—N-(3,3-difluorocyclobutyl)-5-[3-[[5-(difluoromethyl)-2-methylpyrazol-3-yl]amino]-1,2,4-triazol-4-yl]-2-[[(1S,2S)-2-methylcyclopropanecarbonyl]amino]-4,5,6,7-tetrahydro-1-benzothiophene-3-carboxamide]",< 1000 nM
5,"C[C@H]1C[C@@H]1C(=O)Nc1sc2c(c1C(=O)NCC1CC(F)(F)C1)C[C@@H](n1cnnc1Nc1cc(C(F)F)nn1C)CC2 [Example 440, (5S)—N-[(3,3-difluorocyclobutyl)methyl]-5-[3-[[5-(difluoromethyl)-2-methylpyrazol-3-yl]amino]-1,2,4-triazol-4-yl]-2-[[(1S,2S)-2-methylcyclopropanecarbonyl]amino]-4,5,6,7-tetrahydro-1-benzothiophene-3-carboxamide]",< 1000 nM
6,"C[C@H]1C[C@@H]1C(=O)Nc1sc2c(c1C(=O)NCC1CC1(F)F)C[C@@H](n1cnnc1Nc1cc(C(F)F)nn1C)CC2 (stereo partly drawn) [Example 441, (5S)—N-[(2,2-difluorocyclopropyl)methyl]-5-[3-[[5-(difluoromethyl)-2-methylpyrazol-3-yl]amino]-1,2,4-triazol-4-yl]-2-[[(1S,2S)-2-methylcyclopropanecarbonyl]amino]-4,5,6,7-tetrahydro-1-benzothiophene-3-carboxamide]",< 1000 nM
7,"C[C@H]1C[C@@H]1C(=O)Nc1sc2c(c1C(=O)NC[C@H]1C[C@@H](F)C1)C[C@@H](n1cnnc1Nc1cc(C(F)F)nn1C)CC2 [Example 442, (5S)-5-[3-[[5-(difluoromethyl)-2-methylpyrazol-3-yl]amino]-1,2,4-triazol-4-yl]-N-[cis-(3-fluorocyclobutyl)methyl]-2-[[(1S,2S)-2-methylcyclopropanecarbonyl]amino]-4,5,6,7-tetrahydro-1-benzothiophene-3-carboxamide]",< 1000 nM
8,"C[C@H]1C[C@@H]1C(=O)Nc1sc2c(c1C(=O)NC[C@H]1C[C@H]1F)C[C@@H](n1cnnc1Nc1cc(C(F)F)nn1C)CC2 [Example 443, (5S)-5-[3-[[5-(difluoromethyl)-2-methylpyrazol-3-yl]amino]-1,2,4-triazol-4-yl]-N-[[(1R,2R)-2-fluorocyclopropyl]methyl]-2-[[(1S,2S)-2-methylcyclopropanecarbonyl]amino]-4,5,6,7-tetrahydro-1-benzothiophene-3-carboxamide]",< 1000 nM
9,"Cn1nc(OC(F)F)cc1Nc1nncn1[C@H]1CCc2sc(NC(=O)C3CC3)c(C(=O)NCC3CC34CC4)c2C1 (stereo partly drawn) [Example 444, (5S)-2-(cyclopropanecarbonylamino)-5-[3-[[5-(difluoromethoxy)-2-methylpyrazol-3-yl]amino]-1,2,4-triazol-4-yl]-N-(spiro[2.2]pentan-2-ylmethyl)-4,5,6,7-tetrahydro-1-benzothiophene-3-carboxamide]",< 1000 nM
10,"Cn1nc(OC(F)F)cc1Nc1nncn1[C@H]1CCc2sc(NC(=O)C3CC3)c(C(=O)NCC3CCC3)c2C1 [Example 445, (5S)—N-(cyclobutylmethyl)-2-(cyclopropanecarbonylamino)-5-[3-[[5-(difluoromethoxy)-2-methylpyrazol-3-yl]amino]-1,2,4-triazol-4-yl]-4,5,6,7-tetrahydro-1-benzothiophene-3-carboxamide]",< 1000 nM
11,"Cn1nc(OC(F)F)cc1Nc1nncn1[C@H]1CCc2sc(NC(=O)C3CC3)c(C(=O)NCC3CC(F)(F)C3)c2C1 [Example 446, (5S)-2-(cyclopropanecarbonylamino)-N-[(3,3-difluorocyclobutyl)methyl]-5-[3-[[5-(difluoromethoxy)-2-methylpyrazol-3-yl]amino]-1,2,4-triazol-4-yl]-4,5,6,7-tetrahydro-1-benzothiophene-3-carboxamide]",< 1000 nM
12,"Cn1nc(OC(F)F)cc1Nc1nncn1[C@H]1CCc2sc(NC(=O)C3CC3)c(C(=O)N[C@H]3C[C@@H](F)C3)c2C1 [Example 447, (5S)-2-(cyclopropanecarbonylamino)-5-[3-[[5-(difluoromethoxy)-2-methylpyrazol-3-yl]amino]-1,2,4-triazol-4-yl]-N-(cis-3-fluorocyclobutyl)-4,5,6,7-tetrahydro-1-benzothiophene-3-carboxamide]",< 1000 nM
13,"CC1CC(NC(=O)c2c(NC(=O)C3CC3)sc3c2C[C@@H](n2cnnc2Nc2cc(OC(F)F)nn2C)CC3)C1 (stereo partly drawn) [Example 448, (5S)-2-(cyclopropanecarbonylamino)-5-[3-[[5-(difluoromethoxy)-2-methylpyrazol-3-yl]amino]-1,2,4-triazol-4-yl]-N-(3-methylcyclobutyl)-4,5,6,7-tetrahydro-1-benzothiophene-3-carboxamide]",< 1000 nM
14,"Cn1nc(OC(F)F)cc1Nc1nncn1[C@H]1CCc2sc(NC(=O)C3CC3)c(C(=O)N[C@H]3C[C@H](F)C3)c2C1 [Example 449, (5S)-2-(cyclopropanecarbonylamino)-5-[3-[[5-(difluoromethoxy)-2-methylpyrazol-3-yl]amino]-1,2,4-triazol-4-yl]-N-(trans-3-fluorocyclobutyl)-4,5,6,7-tetrahydro-1-benzothiophene-3-carboxamide]",< 1000 nM
15,"Cn1nc(OC(F)F)cc1Nc1nncn1[C@H]1CCc2sc(NC(=O)C3CC3)c(C(=O)NC3CC(F)(F)C3)c2C1 [Example 450, (5S)-2-(cyclopropanecarbonylamino)-N-(3,3-difluorocyclobutyl)-5-[3-[[5-(difluoromethoxy)-2-methylpyrazol-3-yl]amino]-1,2,4-triazol-4-yl]-4,5,6,7-tetrahydro-1-benzothiophene-3-carboxamide]",< 1000 nM
16,"Cn1nc(OC(F)F)cc1Nc1nncn1[C@H]1CCc2sc(NC(=O)C3CC3)c(C(=O)NCC3CCC3(F)F)c2C1 (stereo partly drawn) [Example 451, (5S)-2-(cyclopropanecarbonylamino)-N-[(2,2-difluorocyclobutyl)methyl]-5-[3-[[5-(difluoromethoxy)-2-methylpyrazol-3-yl]amino]-1,2,4-triazol-4-yl]-4,5,6,7-tetrahydro-1-benzothiophene-3-carboxamide]",< 1000 nM
17,"CC1CC1CNC(=O)c1c(NC(=O)C2CC2)sc2c1C[C@@H](n1cnnc1Nc1cc(OC(F)F)nn1C)CC2 (stereo partly drawn) [Example 453, (5S)-2-(cyclopropanecarbonylamino)-5-[3-[[5-(difluoromethoxy)-2-methylpyrazol-3-yl]amino]-1,2,4-triazol-4-yl]-N-[(2-methylcyclopropyl)methyl]-4,5,6,7-tetrahydro-1-benzothiophene-3-carboxamide]",< 1000 nM
18,"Cn1nc(OC(F)F)cc1Nc1nncn1[C@H]1CCc2sc(NC(=O)C3CC3)c(C(=O)NC[C@H]3C[C@H](F)C3)c2C1 [Example 456, (5S)-2-(cyclopropanecarbonylamino)-5-[3-[[5-(difluoromethoxy)-2-methylpyrazol-3-yl]amino]-1,2,4-triazol-4-yl]-N-[trans-(3-fluorocyclobutyl)methyl]-4,5,6,7-tetrahydro-1-benzothiophene-3-carboxamide]",< 1000 nM
19,"Cn1nc(OC(F)F)cc1Nc1nncn1[C@H]1CCc2sc(NC(=O)C3CC3)c(C(=O)NCC3CCC3F)c2C1 (stereo partly drawn) [Example 457, (5S)-2-(cyclopropanecarbonylamino)-5-[3-[[5-(difluoromethoxy)-2-methylpyrazol-3-yl]amino]-1,2,4-triazol-4-yl]-N-[(2-fluorocyclobutyl)methyl]-4,5,6,7-tetrahydro-1-benzothiophene-3-carboxamide]",< 1000 nM
20,"Cn1nc(OC(F)F)cc1Nc1nncn1[C@H]1CCc2sc(NC(=O)C3CC3)c(C(=O)NC[C@H]3C[C@H]3F)c2C1 [Example 461, (5S)-2-(cyclopropanecarbonylamino)-5-[3-[[5-(difluoromethoxy)-2-methylpyrazol-3-yl]amino]-1,2,4-triazol-4-yl]-N-[[(1R,2R)-2-fluorocyclopropyl]methyl]-4,5,6,7-tetrahydro-1-benzothiophene-3-carboxamide]",< 1000 nM
21,"Cn1nc(OC(F)F)cc1Nc1nncn1[C@H]1CCc2sc(NC(=O)C3CC3)c(C(=O)NC[C@H]3C[C@@H]3F)c2C1 [Example 462, (5S)-2-(cyclopropanecarbonylamino)-5-[3-[[5-(difluoromethoxy)-2-methylpyrazol-3-yl]amino]-1,2,4-triazol-4-yl]-N-[[(1R,2S)-2-fluorocyclopropyl]methyl]-4,5,6,7-tetrahydro-1-benzothiophene-3-carboxamide]",< 1000 nM
